# Biological target: HCV NS5B polymerase (Hepatitis C virus genotype 1a, UniProt P27958)
# Test: HCV polymerase inhibition assay (FlashPlate, [α-33P]GTP incorporation)
# Type: biochemical
# Conditions: 20 nM enzyme, 0.6 μM GTP, 250 nM 5′biotinylated oligo (rG13)/poly rC, 75 min at 28° C.
# Protocol: Compounds were tested for HCV polymerase inhibition. Assays were performed in a 96-well streptavidin-coated FlashPlate using 20 nM enzyme, 0.5 μCi of [α-^33P]GTP, 0.6 μM GTP, and 250 nM 5′biotinylated oligo (rG13)/poly rC in 20 mM Tris-HCl, pH 7.5, 5 mM MgCl2, 5 mM dithiothreitol, 0.1 g/L bovine serum albumin, and 100 U/mL RNAse inhibitor. The reaction was stopped by aspiration after 75 min at 28° C. and the plate was washed several times. After washing and drying the plate, incorporated radioactivity was counted using a Microbeta scintillation counter. IC50 values were calculated relative to the uninhibited control and inhibition data were fitted to a 4-parameter IC50 equation. For very potent inhibitors, the data were fitted to a tight binding quadratic equation to obtain IC50 values.
# HCV NS5B polymerase, sequence (P27958 2421-3011): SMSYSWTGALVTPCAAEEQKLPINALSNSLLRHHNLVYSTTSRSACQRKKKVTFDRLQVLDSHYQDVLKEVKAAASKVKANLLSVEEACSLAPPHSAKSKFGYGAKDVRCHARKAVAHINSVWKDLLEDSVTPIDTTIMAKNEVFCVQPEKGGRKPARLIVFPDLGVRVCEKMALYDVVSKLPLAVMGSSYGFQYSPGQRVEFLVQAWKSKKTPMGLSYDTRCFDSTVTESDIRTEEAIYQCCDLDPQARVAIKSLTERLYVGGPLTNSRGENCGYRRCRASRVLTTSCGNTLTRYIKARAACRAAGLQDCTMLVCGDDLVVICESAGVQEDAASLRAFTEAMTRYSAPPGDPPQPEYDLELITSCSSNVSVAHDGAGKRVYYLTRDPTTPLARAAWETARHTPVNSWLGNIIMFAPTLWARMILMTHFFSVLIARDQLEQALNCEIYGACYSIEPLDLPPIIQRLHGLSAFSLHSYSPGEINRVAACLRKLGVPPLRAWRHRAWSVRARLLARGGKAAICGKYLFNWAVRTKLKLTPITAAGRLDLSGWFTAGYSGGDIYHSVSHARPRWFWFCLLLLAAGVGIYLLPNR
row,IC50 [µM],Compound
1,> 1,"CC(C)CCn1nc(-c2cccs2)c(O)c(C2=CS(=O)(=O)c3ccccc3N2)c1=O [Compound 16, 4-(1,1-Dioxo-1,4-dihydro-1λ^6-benzo[1,4]thiazin-3-yl)-5-hydroxy-2-(3-methyl-butyl)-6-thiophen-2-yl-2H-pyridazin-3-one]"
2,> 1,"CCCCc1nn(CCC(C)C)c(=O)c(C2=CS(=O)(=O)c3ccccc3N2)c1O [Compound 25, 6-Butyl-4-(1,1-dioxo-1,4-dihydro-1λ^6-benzo[1,4]thiazin-3-yl)-5-hydroxy-2-(3-methyl-butyl)-2H-pyridazin-3-one]"
3,< 1,"CC(C)CCn1nc(-c2cccs2)c(O)c(C2=CS(=O)(=O)c3cc(NS(C)(=O)=O)ccc3N2)c1=O [Compound 29, N-{3-[5-Hydroxy-2-(3-methyl-butyl)-3-oxo-6-thiophen-2-yl-2,3-dihydro-pyridazin-4-yl]-1,1-dioxo-1,4-dihydro-1λ^6-benzo[1,4]thiazin-7-yl}-methanesulfonamide]"

# From patent US20080090814A1, “PYRIDAZINONE COMPOUNDS” (Anadys Pharmaceuticals, Inc., priority 2006, published 2008)
